# Experimental data from the supplement of paper PMC10307832.
# Columns and labels:
# Experiment in all cases: relative viability (nuclei count vs DMSO), 5 days (fraction); higher = more cells survive
# [1] = compound: CN(C)CC1=CC(=CC=C1)N=C(C2=CC=CC=C2)C3=C(NC4=C3C=CC(=C4)C(=O)N(C)C)O
# Outline: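 Following overnight incubation at 37 °C, lung cancer cell lines in 1536-well plates were pinned with five library-drug doses (not always all listed) in √10 steps on vehicle-anchored plates. The cells then spent 5 days without medium change before a combined fix, permeabilisation and Hoechst stain, 4× imaging and MetaXpress nuclear counts. Viability is the treated-to-vehicle ratio of nuclei, taken as the median across plates. Only plates with control CV below 25% and at least one doubling passed.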
# [2] = compound: CN(C)CC1=CC(=CC=C1)N=C(C2=CC=CC=C2)C3=C(NC4=C3C=CC(=C4)C(=O)N(C)C)O + CC(=O)c1c(C)c2cnc(Nc3ccc(N4CCNCC4)cn3)nc2n(C2CCCC2)c1=O [Palbociclib] (partner 0.5 µM)
# Outline: (§1)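 Relative viability equals treated-well nuclei counts divided by vehicle-well nuclei counts. Counts came from 4× images of lung cancer cell lines grown in 1536-well plates for 5 days after pin-tool dosing on the day after seeding. Dosing used one drug alone or a fixed anchor-drug dose plus five library-drug doses (not always all listed) in √10 steps, and values are medians of duplicate plates.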
# [3] = compound: CN(C)CC1=CC(=CC=C1)N=C(C2=CC=CC=C2)C3=C(NC4=C3C=CC(=C4)C(=O)N(C)C)O + COc1cc2c(Oc3ccc(NC(=O)C4(C(=O)Nc5ccc(F)cc5)CC4)cc3F)ccnc2cc1OCCCN1CCOCC1 [Foretinib] (partner 0.25 µM)
# Outline: as §1
# [4] = compound: CN(C)CC1=CC(=CC=C1)N=C(C2=CC=CC=C2)C3=C(NC4=C3C=CC(=C4)C(=O)N(C)C)O + COc1cccc2cc(-c3nc([C@H]4CC[C@H](C(=O)O)CC4)n4ncnc(N)c34)[nH]c12 [OSI-027] (partner 0.5 µM)
# Outline: as §1
cell line,measurement,setting,value
NCI-H2009,relative viability,[1]; 0.08 µM,1.03
same,relative viability,[1]; 0.253 µM,0.987
same,relative viability,[1]; 0.8 µM,1.1
same,relative viability,[1]; 2.53 µM,0.973
same,relative viability,[1]; 8 µM,0.97
same,relative viability,[2]; first compound 0.08 µM,0.165
same,relative viability,[2]; first compound 0.253 µM,0.236
same,relative viability,[2]; first compound 0.8 µM,0.258
same,relative viability,[2]; first compound 2.53 µM,0.198
same,relative viability,[2]; first compound 8 µM,0.192
same,relative viability,[3]; first compound 0.08 µM,1.17
same,relative viability,[3]; first compound 0.253 µM,1.22
same,relative viability,[3]; first compound 0.8 µM,1.21
same,relative viability,[3]; first compound 2.53 µM,1.23
same,relative viability,[3]; first compound 8 µM,1.11
same,relative viability,[4]; first compound 0.08 µM,0.507
same,relative viability,[4]; first compound 0.253 µM,0.693
same,relative viability,[4]; first compound 0.8 µM,0.764
same,relative viability,[4]; first compound 2.53 µM,0.616
same,relative viability,[4]; first compound 8 µM,0.467
NCI-H2023,relative viability,[1]; 0.08 µM,0.966
same,relative viability,[1]; 0.253 µM,0.905
same,relative viability,[1]; 0.8 µM,1.01
same,relative viability,[1]; 2.53 µM,0.789
same,relative viability,[1]; 8 µM,0.79
same,relative viability,[2]; first compound 0.08 µM,0.332
same,relative viability,[2]; first compound 0.253 µM,0.325
same,relative viability,[2]; first compound 0.8 µM,0.357
same,relative viability,[2]; first compound 2.53 µM,0.289
same,relative viability,[2]; first compound 8 µM,0.36
same,relative viability,[3]; first compound 0.08 µM,0.766
same,relative viability,[3]; first compound 0.253 µM,0.731
same,relative viability,[3]; first compound 0.8 µM,0.785
same,relative viability,[3]; first compound 2.53 µM,0.737
same,relative viability,[3]; first compound 8 µM,0.602
same,relative viability,[4]; first compound 0.08 µM,0.321
same,relative viability,[4]; first compound 0.253 µM,0.468
same,relative viability,[4]; first compound 0.8 µM,0.488
same,relative viability,[4]; first compound 2.53 µM,0.318
same,relative viability,[4]; first compound 8 µM,0.335
NCI-H2085,relative viability,[1]; 0.08 µM,1.02
same,relative viability,[1]; 0.253 µM,1.02
same,relative viability,[1]; 0.8 µM,0.98
same,relative viability,[1]; 2.53 µM,1.02
same,relative viability,[1]; 8 µM,1.02
same,relative viability,[2]; first compound 0.08 µM,0.452
same,relative viability,[2]; first compound 0.253 µM,0.492
same,relative viability,[2]; first compound 0.8 µM,0.476
same,relative viability,[2]; first compound 2.53 µM,0.5
same,relative viability,[2]; first compound 8 µM,0.559
same,relative viability,[3]; first compound 0.08 µM,1
same,relative viability,[3]; first compound 0.253 µM,0.865
same,relative viability,[3]; first compound 0.8 µM,1.15
same,relative viability,[3]; first compound 2.53 µM,1.13
same,relative viability,[3]; first compound 8 µM,0.954
same,relative viability,[4]; first compound 0.08 µM,0.856
same,relative viability,[4]; first compound 0.253 µM,1.15
same,relative viability,[4]; first compound 0.8 µM,0.582
same,relative viability,[4]; first compound 2.53 µM,0.955
same,relative viability,[4]; first compound 8 µM,0.768
NCI-H2087,relative viability,[1]; 0.08 µM,0.915
same,relative viability,[1]; 0.253 µM,1.07
same,relative viability,[1]; 0.8 µM,1.04
same,relative viability,[1]; 2.53 µM,0.978
same,relative viability,[1]; 8 µM,0.956
same,relative viability,[2]; first compound 0.08 µM,0.233
same,relative viability,[2]; first compound 0.253 µM,0.236
same,relative viability,[2]; first compound 0.8 µM,0.214
same,relative viability,[2]; first compound 2.53 µM,0.289
same,relative viability,[2]; first compound 8 µM,0.263
same,relative viability,[3]; first compound 0.08 µM,1
same,relative viability,[3]; first compound 0.253 µM,1.07
same,relative viability,[3]; first compound 0.8 µM,1.19
same,relative viability,[3]; first compound 2.53 µM,1.09
same,relative viability,[3]; first compound 8 µM,0.955
same,relative viability,[4]; first compound 0.08 µM,0.552
same,relative viability,[4]; first compound 0.253 µM,0.668
same,relative viability,[4]; first compound 0.8 µM,0.569
same,relative viability,[4]; first compound 2.53 µM,0.542
same,relative viability,[4]; first compound 8 µM,0.367
NCI-H2126,relative viability,[1]; 0.08 µM,1.01
same,relative viability,[1]; 0.253 µM,0.988
same,relative viability,[1]; 0.8 µM,0.941
same,relative viability,[1]; 2.53 µM,1.03
same,relative viability,[1]; 8 µM,0.903
same,relative viability,[2]; first compound 0.08 µM,0.373
same,relative viability,[2]; first compound 0.253 µM,0.362
same,relative viability,[2]; first compound 0.8 µM,0.286
same,relative viability,[2]; first compound 2.53 µM,0.363
same,relative viability,[2]; first compound 8 µM,0.36
same,relative viability,[3]; first compound 0.08 µM,1.1
same,relative viability,[3]; first compound 0.253 µM,1.13
same,relative viability,[3]; first compound 0.8 µM,1.17
same,relative viability,[3]; first compound 2.53 µM,1.16
same,relative viability,[3]; first compound 8 µM,1.02
same,relative viability,[4]; first compound 0.08 µM,0.612
same,relative viability,[4]; first compound 0.253 µM,0.745
same,relative viability,[4]; first compound 0.8 µM,0.812
same,relative viability,[4]; first compound 2.53 µM,0.8
same,relative viability,[4]; first compound 8 µM,0.676
NCI-H2170,relative viability,[1]; 0.08 µM,0.952
same,relative viability,[1]; 0.253 µM,0.981
same,relative viability,[1]; 0.8 µM,0.812
same,relative viability,[1]; 2.53 µM,1.02
same,relative viability,[1]; 8 µM,0.915
same,relative viability,[2]; first compound 0.08 µM,0.443
same,relative viability,[2]; first compound 0.253 µM,0.384
same,relative viability,[2]; first compound 0.8 µM,0.341
same,relative viability,[2]; first compound 2.53 µM,0.368
same,relative viability,[2]; first compound 8 µM,0.397
same,relative viability,[3]; first compound 0.08 µM,0.99
same,relative viability,[3]; first compound 0.253 µM,1.01
same,relative viability,[3]; first compound 0.8 µM,1.03
same,relative viability,[3]; first compound 2.53 µM,0.966
same,relative viability,[3]; first compound 8 µM,0.857
same,relative viability,[4]; first compound 0.08 µM,0.739
same,relative viability,[4]; first compound 0.253 µM,0.75
same,relative viability,[4]; first compound 0.8 µM,0.465
same,relative viability,[4]; first compound 2.53 µM,0.69
same,relative viability,[4]; first compound 8 µM,0.676
NCI-H2228,relative viability,[1]; 0.08 µM,1.04
same,relative viability,[1]; 0.253 µM,1.06
same,relative viability,[1]; 0.8 µM,0.874
same,relative viability,[1]; 2.53 µM,0.879
same,relative viability,[1]; 8 µM,0.789
same,relative viability,[2]; first compound 0.08 µM,0.825
same,relative viability,[2]; first compound 0.253 µM,0.602
same,relative viability,[2]; first compound 0.8 µM,0.715
same,relative viability,[2]; first compound 2.53 µM,0.673
same,relative viability,[2]; first compound 8 µM,0.77
same,relative viability,[3]; first compound 0.08 µM,0.946
same,relative viability,[3]; first compound 0.253 µM,0.904
same,relative viability,[3]; first compound 0.8 µM,0.77
same,relative viability,[3]; first compound 2.53 µM,0.88
same,relative viability,[3]; first compound 8 µM,0.708
same,relative viability,[4]; first compound 0.08 µM,0.638
same,relative viability,[4]; first compound 0.253 µM,0.736
same,relative viability,[4]; first compound 0.8 µM,0.615
same,relative viability,[4]; first compound 2.53 µM,0.492
same,relative viability,[4]; first compound 8 µM,0.419
NCI-H2342,relative viability,[1]; 0.08 µM,1.02
same,relative viability,[1]; 0.253 µM,1.04
same,relative viability,[1]; 0.8 µM,0.904
same,relative viability,[1]; 2.53 µM,1.15
same,relative viability,[1]; 8 µM,1.02
same,relative viability,[2]; first compound 0.08 µM,0.519
same,relative viability,[2]; first compound 0.253 µM,0.528
same,relative viability,[2]; first compound 0.8 µM,0.549
same,relative viability,[2]; first compound 2.53 µM,0.547
same,relative viability,[2]; first compound 8 µM,0.605
same,relative viability,[3]; first compound 0.08 µM,1.08
same,relative viability,[3]; first compound 0.253 µM,1.06
same,relative viability,[3]; first compound 0.8 µM,0.979
same,relative viability,[3]; first compound 2.53 µM,1.17
same,relative viability,[3]; first compound 8 µM,1.05
same,relative viability,[4]; first compound 0.08 µM,0.63
same,relative viability,[4]; first compound 0.253 µM,0.535
same,relative viability,[4]; first compound 0.8 µM,0.621
same,relative viability,[4]; first compound 2.53 µM,0.708
same,relative viability,[4]; first compound 8 µM,0.65
